Reference: patent US6130227A, “7-Substituted camptothecin derivatives and methods for inhibiting the growth of tumor cells therewith” (priority 1996, dated 2000)

Tests used:
[1] = test system: NCI-H460 human lung tumor xenograft growing i.p.; assay: Survival of nude mice bearing i.p. NCI-H460 tumor xenograft; assay type: in vivo
Description: A preclinical efficacy study was designed to evaluate the antitumor activity of the compounds of the present invention in comparison with topotecan (a first generation camptothecin already in clinical trials) as reference drug. The human tumor line NCI-H460, a non small cell lung carcinoma, was chosen because of the high expression of topoisomerase I, the known target of camptothecin drugs. This tumor model is relatively resistant to in vivo treatment with conventional cytotoxic agents (e.g., doxorubicin, cisplatin). Tumor cells were injected i.p. into nude mice (2.5×10^6 cell/mouse) of about 10 weeks and 3 days later the drugs were injected in the peritoneal cavity (10 ml/kg b.w.) to allow a direct contact of the drugs with tumor cells. Both topotecan and the compound of formula (I) described in Example 1 below, were delivered q4dx4 times. This schedule has been reported as optimal for camptothecin drugs in other preclinical studies. Mice were observed daily for death. The antitumor activity of the drugs was expressed as T/C %, i.e. the ratio between the median survival time of the drug-treated mice (T) and survival of the control untreated mice (C)×100. Treated mice, dead before the first control mouse or shortly after treatment with reduced body weight, were considered dead for drug toxicity. Mice still alive over 100 days after tumor cell inoculum were considered as long-term survivors (LTS). […]

[2] = Antitumor activity by the oral route; assay type: in vivo
[3] = Experiment 1, 6.6 mg/kg i.p. q4d x 4
[4] = Experiment 1, 10 mg/kg i.p. q4d x 4
[5] = Experiment 1, 10 mg/kg i.p. q4d x 4, from day 3
[6] = Experiment 2, 10 mg/kg i.p. q4d x 4
[7] = Experiment 2, 10 mg/kg i.p. q4d x 4, from day 3
[8] = Experiment 2, 12 mg/kg i.p. q4d x 4
[9] = Experiment 2, 12 mg/kg i.p. q4d x 4, from day 3
[10] = Experiment 2, 14.4 mg/kg i.p. q4d x 4
[11] = Experiment 2, 14.4 mg/kg i.p. q4d x 4, from day 3

Structure (SMILES)	LTS (100 days) [1, 4]	No. of toxic/total no. mice [1, 4]	% T/C [1, 5]	LTS (100 days) [1, 6]	% T/C [1, 7]	LTS (100 days) [1, 8]	No. of toxic/total no. mice [1, 8]	% T/C [1, 9]	LTS (100 days) [1, 10]	% T/C [1, 11]	further results
CC[C@@]1(O)C(=O)OCc2c1cc1n(c2=O)Cc2c-1nc1ccccc1c2C#N [Example 1, 20S-camptothecin-7-carbonitrile]	3/8	0/8	258%	1/7	233%	1/7	0/7	200%	2/7	277%	LTS (100 days) [1, 3]: 2/8; No. of toxic/total no. mice [1, 3]: 0/8; % T/C ([1]; Experiment 1, 6.6 mg/kg i.p. q4d x 4, from day 3): 157%; No. of toxic/total no. mice [1, 6]: 0/7; No. of toxic/total no. mice ([1]; Experiment 2, 14.4 mg/kg i.p. q4d x 4, 14.4 mg/kg): 1/7; No. of toxic/total no. mice ([1]; Experiment 2, 14.4 mg/kg i.p. q4d x 4, listed as CPT83, 14.4 mg/kg): 1; Tolerability compared with topotecan ([1]; NCI-H460 tumor xenograft): better tolerability than topotecan; T/C % values ([1]; at all doses tested): higher than 200%; Drug efficacy compared with topotecan ([1]; experiment 1, slowly-growing tumor): superior to that of topotecan; Efficacy in terms of T/C % compared with topotecan ([1]; experiment 2, rapidly growing tumor): comparable to that of topotecan; Activity by the oral route ([2]; oral): active; Activity compared with topotecan ([2]; oral CPT83 vs topotecan i.v. with optimal treatment schedule): more active than topotecan
CC[C@@]1(O)C(=O)OCc2c1cc1n(c2=O)Cc2cc3c(CN(C)C)c(O)ccc3nc2-1 [Topotecan, reference compound]	2/8	0/8	215%	1/7	261%	0/7	4/7	77%	0/7	77%	No. of toxic/total no. mice [1, 10]: 5/7
